According to US20120207740A1, “Method for Treating Pervasive Development Disorders” (CUREMARK, LLC, priority 1999, published 2012):

Key:
[1] = tested on: children diagnosed as having autism; test: Fecal Chymotrypsin Test before and after secretin infusion in 16 autistic children (Experiment 1); assay type: in vivo, human; conditions: each of 16 autistic children; approximately one week after first secretin infusion, 1 U/kg IV
Procedure: (§1) In this experiment, 16 children diagnosed as having autism were administered the following Fecal Chymotrypsin Test in accordance with an embodiment of the invention. First, approximately 2 grams of stool were collected from each child and placed in a sterile container (although it is to be understood that any quantity of stool may be collected, as 2 grams of stool is not a required amount). Each stool sample was then analyzed using, e.g., an enzymatic photospectrometry analysis as is known by those skilled in the art, to determine the level of fecal chymotrypsin in the stool. Although the enzymatic photospectrophotometry process is preferred, any suitable conventional method may be used for measuring the fecal chymotrypsin levels. The measured chymotrypsin levels of the 16 autistic children are illustrated in FIG. 13.
After determining the chymotrypsin levels of the stools, each of these levels were compared with threshold chymotrypsin levels to determine if the child was likely to benefit from secretin administration. By way of example, with the fecal chymotrypsin tests of the stool samples being performed at 30° C., normal levels of chymotrypsin are deemed to lie above 8.4 U/gram, whereas pathologically abnormal levels are deemed to lie below 4.2 U/gram. […]

[2] = tested on: autistic children with abnormal fecal chymotrypsin levels; test: Fecal chymotrypsin levels of 37 autistic children administered secretin over 6 months (Experiment 2); assay type: in vivo, human; conditions: 6 Months Post-Secretin Administration, of 37 children
Procedure: as §1
After determining the chymotrypsin levels of the stools, each of these levels were compared with threshold chymotrypsin levels to determine if the child was likely to benefit from secretin administration. By way of example, with the fecal chymotrypsin tests of the stool samples being performed at 30° C., normal levels of chymotrypsin are deemed to lie above 8.4 U/gram, whereas pathologically abnormal levels are deemed to lie below 4.2 U/gram. In addition, chymotrypsin levels between 8.4 U/gram and 4.2 U/gram are considered equivocal, and further testing of the individual's fecal chymotrypsin levels over a period of time should be performed.
A preferred secretin infusion process includes the initial step of prepping an arm of the candidate child with an IV injection of saline. A test dose of 1 U of Secretin-Ferring is then administered to the child. […]
In this experiment, 37 autistic children with abnormal fecal chymotrypsin levels were administered secretin over the course of 6 months using the secretin infusion process described above. Their fecal chymotrypsin (FC) levels were measured weekly using the fecal chymotrypsin test described above.

[3] = tested on: children diagnosed as having autism; test: CARS (Childhood Autism Rating Scale) test pre- and post-secretin administration (Experiment 1); assay type: in vivo, human; conditions: 16 autistic children
Procedure: Upon determining that a given child was likely to benefit from secretin administration based on the results of the fecal chymotrypsin test, the child was administered a CARS (Childhood Autism Rating Scale) test prior to being scheduled for secretin infusion.
For each of the 16 autistic children tested, a preferred secretin infusion process according to the present invention was performed involving the administering of 1 U/kg of body weight of Secretin-Ferring for a period of nine months at intervals of approximately 6 weeks. In addition, another CARS test was administered to each of the 16 autistic children 3 weeks post secretin administration to determine if their autism had changed post infusion.
A preferred secretin infusion process includes the initial step of prepping an arm of the candidate child with an IV injection of saline. A test dose of 1 U of Secretin-Ferring is then administered to the child. Approximately one minute after infusion, the child is examined for signs of allergic reaction including rash, increased heart rate, and increase of blood pressure. […] Subsequently, each child receives a 1 U/kg of body weight infusion of Secretin-Ferring approximately every 6 weeks for 9 months. It is to be understood that any commercially available form of secretin may be used.

[4] = tested on: children diagnosed with Autism; conditions: secretin given as diagnostic procedure during upper gastrointestinal endoscopy; Horvath et al. 1998; cited from earlier work

Question: Which “fecal chymotrypsin level post-secretin administration versus pre-secretin” value [1] does the source give for secretin here?
Answer: Its value is “increased”.

Question: And the “# Autistic Children w/Equivocal FC levels” value ([2]; 0 equivocal pre-secretin)?
Answer: The value was 2.

Question: And the “# Autistic Children w/normal FC levels” value ([2]; 0 normal pre-secretin)?
Answer: The value was 34.

Question: And the “# Autistic Children w/Abnormal FC levels” value ([2]; 37 abnormal pre-secretin)?
Answer: The value was 1.

Question: What about the “CARS component scores (except fear component)” value ([3]; 3 weeks post infusion) of the same substance?
Answer: The value was “demonstrated improvement”.

Question: And the “overall CARS scores post-secretin versus pre-secretin” value ([3]; approximately 3 weeks after first secretin administration)?
Answer: The value was “overall decrease”.

Question: What about the “symptoms associated with Autism” value [4] of the same substance?
Answer: Its value is “ameliorating the symptoms”.
